Patent publication US20210128414A1, “SELF-ASSEMBLED NANOSTRUCTURES AND COMPOSITE MATERIALS USABLE IN DENTAL APPLICATIONS CONTAINING SAME” (Ramot at Tel-Aviv University Ltd., priority 2018, published 2021)

Tests used:
[1] = Occlusal fissure stability and optical property analyses; assay type: physicochemical; conditions: 2% w/w composite
Description: Occlusal Fissure Stability and Optical Property Analyses were also performed as follows.
Occlusal fissures were made via a diamond bur and then restored utilizing either the 2% nanostructure-containing restorative composites or a control (0%) restorative. The samples were contained for 30 days at 37° C. in sterile PBS. A Spectroshade Micro-MHT dental spectrophotometer normalized to the Vita classical color guide was then utilized to evaluate the color of the tested samples.

[2] = Diametral Tensile Strength (DTS) test; assay type: physicochemical; conditions: 2% w/w nanostructures in Filtek composite; p>0.155
Description: Diametral Tensile Strength (DTS) Test was further performed to verify the difference in tensile properties (tensile strength and stiffness of the specimens characterizing the elasticity of the materials) of the 2% amalgamated material compared to the control (0%), as follows.
Disks (6 mm in diameter, 3 mm in height) of either control resin composite restorative or 2% nanoassembly-incorporated resin composite restorative were prepared in a Teflon mold similar to the specimens used for the punch shear strength. Specimens were loaded up to failure. The linear slope during loading was calculated, indicating the stiffness of the specimen, and the DTS was calculated by: […]
where P is the load at failure (N), D is the specimen diameter (mm), and t is the specimen height (mm).
The specimens were loaded via the above-mentioned loading machine using the same crosshead speed. Statistical analysis was carried out via T-test.

[3] = Shear-Punch Strength Test of nanostructure-incorporated resin composite restorative; assay type: physicochemical
Description: The effect of the incorporation of peptide nanostructures in the polymerized dental resin composite restorative on the structural integrity of the resin composite restorative was tested. A Shear-Punch Test was carried out on samples incorporating varying weight ratios of Fmoc-Pentafluoro-Phe.
A Shear-Punch Strength Test was performed according to Mount et al., Aust. Dent. 1996; J 41: 116-23. Shear Punch Strength Test. Briefly, a composition comprising the nanostructures dispersed in a pre-polymerized resin composite restorative was placed in 0.8 mm thick wash holders and light-cured to form flat parallel surfaces evenly supported and restrained by the holder. The samples were then placed in an Instron device (model 4502) for punching under a crosshead speed of 0.5 mm per minute. The maximum force applied (Fmax) was calculated as the mean of 10 different samples for each w/w % concentration of the tested nanostructure. Statistical analysis was carried out via one-way analysis of variance and Dunnett's post hoc test.

S. mutans [4] = test: Live/Dead (Syto9/Propidium iodide) bacterial viability analysis of nanostructure-treated bacteria; assay type: cell-based, Streptococcus mutans; conditions: after kinetic analysis with nanostructures
Description: To directly assess bacterial viability, the bacteria were subjected to Live/Dead viability analysis containing Syto9 (indicating live bacteria) and Propidium iodide (PI) (indicating dead bacteria). Following kinetic analysis, the samples were washed thrice with saline, incubated for 15 minutes in a solution containing Syto9 and Propidium iodide (L13152 LIVE/DEAD BacLight Bacterial Viability Kit, Molecular Probes, OR), and washed with saline again. Fluorescence emission was detected using an ECLIPSE E600 fluorescent microscope (Nikon, Japan).

[5] = HPLC-based nanostructures release evaluation in sterile saliva; assay type: physicochemical; conditions: 37° C., 2% w/w composite
Description: Restorative composites incorporating 4 mg of the Fmoc-F5-Phe nanostructures to a final w/w % of 2% were examined following 24, 48 and 72 hours of incubation at 37° C. in sterile saliva.

3T3 fibroblasts = test: MTT cell viability analysis of composite restoratives; assay type: cell-based; conditions: nanostructure-incorporated composite versus composite alone; 18 hours, 37° C.
Description: (§1) The effect of the incorporation of Fmoc-F5-Phe on the cytotoxicity of the dental composite restoratives was tested. This was carried out by evaluating the effect of each amalgamated composite restorative (containing self-assembled nanostructures as described herein) on the viability of two cell lines; HeLa and 3T3 fibroblasts, using MTT analysis, as follows.
(§2) The 3T3 fibroblast cells and HeLa cells grown in Dulbecco's Modified Eagle's Medium (DMEM) supplemented with 10% fetal calf serum (FBS) (Biological Industries, Israel) were sub-cultured (2×10^5 cells/mL) in 96-well tissue microplates (100 μl per well) and were allowed to adhere overnight at 37° C. Inserts (in quadruplet) coated on one side with each of the nano-assembly incorporated resin composite restoratives were placed into the wells containing the adhered cells. After incubation for 18 hours at 37° C., cell viability was evaluated using the 3-(4,5-dimethylthiazolyl-2)-2,5-diphenyltetrazolium bromide (MTT) assay. Briefly, 10 μL of 5 mg/mL MTT dissolved in PBS was added to each well. After 4 hours incubation at 37° C., 100 μl of the extraction buffer [20% SDS dissolved in a solution of 50% dimethylformamide and 50% DDW (pH 4.7)] were added to each well, and the plates were incubated again at 37° C. for 30 minutes. Finally, color intensity was measured using an ELISA reader at 570 nm. […]

HeLa cells = test: as above; assay type: cell-based; conditions: nanostructure-incorporated composite versus composite alone; 18 hours, 37° C.
Description: as §1, §2

S. mutans [6] = test: Bacterial morphology by high-resolution scanning electron microscopy; assay type: cell-based, Streptococcus mutans; conditions: overnight treatment with nanostructures
Description: The effect of Fmoc-F5-Phe nanostructures on bacterial morphology was studied using High-Resolution Scanning Electron Microscopy as follows.
Bacterial samples were centrifuged at 5000 rpm for 5 minutes, washed thrice in PBS, and fixed in 2.5% glutaraldehyde in PBS for 1 hour. The samples were then washed thrice in PBS and fixed in 1% OsO4 in PBS for 1 hour, followed by a dehydration series with ethanol. The samples were then left in absolute ethanol for 30 minutes and placed onto glass coverslips, followed by critical point drying and coating with gold. Micrographs were recorded using a JEOL JSM-6700F FE-SEM scanning electron microscope operating at 10 kV. The obtained micrographs shown in FIG. 1I are representative of three independent experiments.

S. mutans [7] = test: Minimum inhibitory concentration and kinetic growth inhibition analysis of nanostructures; assay type: cell-based, Streptococcus mutans
Description: The antibacterial capabilities of the obtained nanostructures were evaluated against S. mutans via a minimum inhibitory concentration (MIC) analysis and by kinetic growth inhibition analysis, as follows. S. mutans bacteria were grown under anaerobic conditions in brain heart infusion (BHI) medium (BD Difco) for 48 hours and then diluted to OD600 of 0.01 or 0.25 in BHI. Nanostructures samples, at an initial concentration of 8 mM, were added to the bacterial samples in 96-well plates in serial 2-fold dilutions, which were sealed to ensure anaerobic conditions. Kinetic growth inhibition was determined by optical density measurements (650 nm) using a Biotek Synergy HT microplate reader. The minimum inhibitory concentration (MIC) was determined using the microdilution assay, and evaluation of the reduction in colony-forming units was obtained by plating and counting bacterial samples before and after overnight treatment. […] The ability of the nanostructures to inhibit bacterial growth at a higher bacterial load, similar to that of an active infection was also tested. S. mutans cultures were grown until mid-log phase and were then treated with 2 mM samples of the nanostructures.

S. mutans [8] = test: Live/Dead viability analysis after contact with composite restoratives; assay type: cell-based, Streptococcus mutans
Description: To directly assess bacterial viability, treated and control bacteria were subjected to Live/Dead viability analysis, using the Live/Dead backlight bacterial viability kit and accompanying instructions, as follows. S. mutans bacteria were grown in anaerobic conditions in BHI media for 48 hours and then diluted to an OD600 of 0.6 in BHI. 100 μl of these samples were deposited onto inserts coated on one side with each of the polymeric matrices and then incubated for one hour at 37 degrees. Following incubation […] was added to each well and the plates were sealed to ensure anaerobic conditions. At each time point (initial incubation, 1 hour and 24 hours) samples were taken and washed with saline, incubated for 15 minutes in a solution containing Propidium iodide and Syto9 (L13152 LIVE/DEAD® BacLight™ Bacterial Viability Kit, Molecular Probes, OR, USA) and washed with saline again. Fluorescence emission was detected using an ECLIPSE E600 (Nikon, Japan).

S. mutans [9] = test: SYTOX Blue membrane permeation assay; assay type: cell-based, Streptococcus mutans; conditions: nanostructures, 3 hours incubation at 37° C.
Description: The effect of Fmoc-F5-Phe nanostructures on bacterial membrane permeation was also supported by a SYTOX Blue membrane permeation assay. SYTOX Blue is a cationic dye that cannot enter an intact cell unless its membrane is disrupted by external compounds. Inside the cell, SYTOX Blue stain binds to intracellular nucleic acids and fluoresces bright blue when excited with 405 nm violet laser light.
S. mutans bacteria were grown under anaerobic conditions in BHI medium (BD Difco) for 48 hours and diluted to 0.1 OD600. Fmoc-F5-Phe or ultrapure water (100 μL) as control was added to 300 μL of bacteria and incubated for 3 hours in 37° C. The bacterial cells were centrifuged for 5 minutes at 3700 rpm and incubated with 1 μM SYTOX blue (Thermo Fisher Scientific) for 30 minutes at 37° C. The samples were washed three times in PBS and examined by confocal microscopy LSM 510, excited at 405 nm (Zeiss, Germany).

S. mutans [10] = test: Direct-contact kinetic analysis (direct-contact test) of polymerized composite materials; assay type: cell-based, Streptococcus mutans; conditions: 1 hour direct contact
Description: In order to evaluate the antimicrobial capabilities of the resin composite restoratives while simulating its clinical use, a direct-contact test (DCT) was carried out. This spectroscopic microplate reader based test, designed for compounds that are non-diffusible and non-soluble in water, allows measuring the effect of direct contact between the evaluated material and bacterial viability and growth. Four different W/W % samples of the resin composite material were evaluated at 0.25, 0.5, 1 and 2% Fmoc-F5-Phe nano-structure concentrations, and Filtek™ Ultimate Flow with no Fmoc-F5-Phe nano-structures additives, treated in the same manner, served as a control. Streptococcus mutans (S. mutans) was chosen for this evaluation as this strain is commonly found in the human oral cavity and is a significant caries-causing pathogen. Following direct contact of S. mutans bacteria with the Fmoc-F5-Phe incorporated materials the subsequent proliferation of the bacteria, was evaluated by optical density measurements over eighteen hours.
This analysis was carried out as described in Weiss et al. Endod. Dent. Traumatol. 12, 179-84 (1996), with slight modification.
S. mutans bacteria were grown in anaerobic conditions in BHI media for 48 hours and then diluted to an OD600 of 0.6 in BHI. […] were deposited onto inserts (concaved plastic surfaces designed to be suspended in the wells of 96 well-plates) coated on one side with each of the nano-assembly incorporated resin composite restoratives (four different W/W % samples of the resin composite material were evaluated at 0.25, 0.5, 1 and 2% concentrations of each nanostructure) and then incubated for one hour at 37° C. Following incubation […] was added to each well so that the inserts were submerged in the BHI and the plates were sealed to ensure anaerobic conditions. Kinetic growth inhibition was determined by optical density measurements (650 nm) using a Biotek Synergy HT microplate reader.

[11] = 2% w/w nanostructures in Filtek composite
[12] = 0.25-1% w/w nanostructures in Filtek composite

For `O=C(NC(Cc1c(F)c(F)c(F)c(F)c1F)C(=O)O)OCC1c2ccccc2-c2ccccc21` (stereo not drawn) [Fmoc-F5-Phe, Fmoc-Pentafluorophenylalanline], the “stability of occlusal fissure restorations” value ([1]; 30-day incubation at 37° C. in sterile PBS) was “remained intact and stable”, the “color (Vita shade) versus control” value ([1]; Spectroshade Micro-MHT spectrophotometer) was “same Vita shade” and the “diametral tensile strength and stiffness versus control (0%)” value [2] was “No statistically significant differences”. The “Fmax versus control (0%)” value ([3]; 0.25%, 0.5% and 1% w/w nanostructures in Filtek composite, p≥0.144) was “no statistically significant difference”, the “Fmax, inferior to control (0%) by” value ([3]; 2% w/w nanostructures in Filtek composite, p=0.011) was 9% and the “effect on stiffness of the specimen” value ([3]; nanostructures in Filtek composite, data not shown) was “no substantial effect”. The “bacterial viability (Live/Dead)” value (S. mutans [4]) was “significant bacterial cell death”, the “amount of nanostructures released” value ([5]; 24 hours, 4 mg nanostructures) was 0.9520 micrograms and the “released fraction of initial amount of incorporated nanostructures” value ([5]; 24 hours) was “less than 0.024%”. The “amount of nanostructures released” value ([5]; 48 hours) was 0.1805 micrograms, the “released fraction of incorporated nanostructures” value ([5]; 48 hours) was “below 0.0046%” and the “amount of nanostructures released” value ([5]; 72 hours) was 0.1088 micrograms. For the same compound, the “effect of incorporation on cell viability (MTT)” value (3T3 fibroblasts) was “did not change the effect”, the “effect of incorporation on cell viability (MTT)” value (HeLa cells) was “did not change the effect” and the “effect on bacterial morphology” value (S. mutans [6]) was “membrane fusing, clumping, and disintegration were abundant”. The “bacterial growth inhibition at higher bacterial load” value (S. mutans [7]; 2 mM nanostructures added to mid-log phase cultures) was “inhibited bacterial proliferation”, the “reduction in colony-forming units” value (S. mutans [7]; nanostructures at 2 mM, overnight, early log phase cultures) was 7.2 log(10) CFU/mL and the “bacterial growth inhibition at lower concentrations” value (S. mutans [7]; nanostructures below 2 mM, overnight) was “partially inhibiting growth in a dose-dependent manner”. For the same compound, the “concentration at which overnight incubation completely inhibited bacterial growth (MIC analysis)” value (S. mutans [7]; self-assembled nanostructures, cultures started at early log phase, overnight) was 2000 µM, the “bacterial viability (Live/Dead)” value (S. mutans [8]; [11]) was “bacterial cell death” and the “bacterial viability (Live/Dead), persistence of effect” value (S. mutans [8]; composite with nanostructures, 24 hours) was “persisted”. The “bacterial viability (Live/Dead)” value (S. mutans [8]; composite with nanostructures, one hour of treatment, versus Filtek alone) was “large scale bacterial death”, the “bacteria stained with SYTOX Blue (membrane permeation)” value (S. mutans [9]) was “about 90%” and the bacterial growth inhibition (S. mutans [10]; [12]) was “partially inhibit bacterial growth in a dose dependent manner”. For the same compound, the bacterial growth inhibition (S. mutans [10]; [11]) was “over 95%”.
For `O=C(N[C@@H](Cc1ccccc1)C(=O)O)OCC1c2ccccc2-c2ccccc21` [Fmoc-Phe, Fmoc-phenylalanine], the bacterial growth inhibition (S. mutans [10]; [12]) was “inhibited growth in a dose-dependent manner” and the bacterial growth inhibition (S. mutans [10]; [11]) was 60%.
